Test results: US9707229B2, “Compositions and methods for treating an infection” (CMPD LICENSING, LLC, priority 2015, dated 2017)

What was measured:
Format in all cases: cell-based
Brucella species = details: expected efficacy; Gram: neg
Acinetobacter baumannii = assay: Expected efficacy of antibiotic agents; details: Gram: neg
Chlamydia psittaci = details: expected efficacy; Gram: n/a
Legionella pneumophila = details: expected efficacy; Gram: neg
Morganella morganii = assay: Expected efficacy of antibiotic agents; details: Gram: neg
Pseudomonas fluorescens = assay: Expected efficacy of antibiotic agents; details: Gram: neg
Providencia rettgeri = assay: Expected efficacy of antibiotic agents; details: Gram: neg
Enterobacter cloacae = assay: Expected efficacy of antibiotic agents; details: Gram: neg
Chlamydia trachomatis = assay: Expected efficacy of antibiotic agents; details: Gram: n/a
Providencia stuartii = assay: Expected efficacy of antibiotic agents; details: Gram: neg
Rickettsiae = details: expected efficacy; Gram: neg
Enterococcus faecium = assay: Expected efficacy of antibiotic agents; details: Gram: pos
Pseudomonas aeruginosa = assay: Expected efficacy of antibiotic agents; details: Gram: neg
Mycoplasma pneumoniae = assay: Expected efficacy of antibiotic agents; details: Gram: n/a
Serratia marcescens = assay: Expected efficacy of antibiotic agents; details: Gram: neg
[1] = test system: Klebsiella (Calymmatobacterium) granulomatis; assay: Expected efficacy of antibiotic agents; details: Gram: neg
Bordetella pertussis = assay: Expected efficacy of antibiotic agents; details: Gram: neg
Bacteroides fragilis = assay: Expected efficacy of antibiotic agents; details: Gram: anaer
Moraxella catarrhalis = assay: Expected efficacy of antibiotic agents; details: Gram: neg
Citrobacter freundii = assay: Expected efficacy of antibiotic agents; details: Gram: neg
Klebsiella pneumoniae = assay: Expected efficacy of antibiotic agents; details: Gram: neg
Escherichia coli = assay: Expected efficacy of antibiotic agents; details: Gram: neg
Enterococcus faecalis = assay: Expected efficacy of antibiotic agents; details: Gram: pos
[2] = test system: Methicillin resistant staph aureus (MRSA); assay: Expected efficacy of antibiotic agents; details: Gram: pos
Francisella tularensis = details: expected efficacy; Gram: neg
Enterobacter sakazakii = assay: Expected efficacy of antibiotic agents; details: Gram: neg
Chlamydia pneumoniae = assay: Expected efficacy of antibiotic agents; details: Gram: n/a
Campylobacter jejuni = assay: Expected efficacy of antibiotic agents; details: Gram: neg
Bartonella bacilliformis = assay: Expected efficacy of antibiotic agents; details: Gram: neg
Streptococcus agalactiae = assay: Expected efficacy of antibiotic agents; details: Gram: pos
Proteus mirabilis = assay: Expected efficacy of antibiotic agents; details: Gram: neg
Acinetobacter lwoffii = assay: Expected efficacy of antibiotic agents; details: Gram: neg
Clostridium difficile = assay: Expected efficacy of antibiotic agents; details: Gram: anaer
[3] = test system: Staphylococcus aureus (MSSA); assay: Expected efficacy of antibiotic agents; details: Gram: pos
Citrobacter diversus = assay: Expected efficacy of antibiotic agents; details: Gram: neg
Streptococcus pneumoniae = assay: Expected efficacy of antibiotic agents; details: Gram: pos
Proteus vulgaris = assay: Expected efficacy of antibiotic agents; details: Gram: neg
Neisseria meningitidis = assay: Expected efficacy of antibiotic agents; details: Gram: neg
[4] = test system: Staphylococcus epidermidis; assay: Expected efficacy of antibiotic agents; details: Gram: pos
[5] = test system: Acinetobacter calcoaceticus; assay: Expected efficacy of antibiotic agents; details: Gram: neg
Corynebacterium jeikeium = assay: Expected efficacy of antibiotic agents; details: Gram: pos
Vibrio cholerae = assay: Expected efficacy of antibiotic agents; details: Gram: neg
Haemophilus influenzae = assay: Expected efficacy of antibiotic agents; details: Gram: neg
Clostridium perfringens = details: expected efficacy; Gram: anaer
Streptococcus pyogenes = assay: Expected efficacy of antibiotic agents; details: Gram: pos
Enterobacter aerogenes = assay: Expected efficacy of antibiotic agents; details: Gram: neg
Klebsiella oxytoca = assay: Expected efficacy of antibiotic agents; details: Gram: neg
Shigella boydii = assay: Expected efficacy of antibiotic agents; details: Gram: neg
Salmonella typhi = assay: Expected efficacy of antibiotic agents; details: Gram: neg
Shigella flexneri = assay: Expected efficacy of antibiotic agents; details: Gram: neg
Neisseria gonorrhoeae = assay: Expected efficacy of antibiotic agents; details: Gram: neg
Shigella sonnei = assay: Expected efficacy of antibiotic agents; details: Gram: neg
Yersinia pestis = details: expected efficacy; Gram: neg
Shigella dysenteriae = assay: Expected efficacy of antibiotic agents; details: Gram: neg
[6] = test system: Haemophilus parainfluenzae; assay: Expected efficacy of antibiotic agents; details: Gram: neg
Candida species = assay: Expected efficacy of antifungal agents
[7] = test system: Corynebacterium urealyticum; assay: Expected efficacy of antibiotic agents; details: Gram: pos
Peptostreptococcus = assay: Expected efficacy of antibiotic agents; details: Gram: pos
Haemophilus ducreyi = assay: Expected efficacy of antibiotic agents; details: Gram: neg
Diphtheroids = assay: Expected efficacy of antibiotic agents; details: Gram: pos
[8] = test system: Viridans group streptococci; assay: Expected efficacy of antibiotic agents; details: Gram: pos

CC[C@H]1OC(=O)[C@H](C)[C@@H](O[C@H]2C[C@@](C)(OC)[C@@H](O)[C@H](C)O2)[C@H](C)[C@@H](O[C@@H]2O[C@H](C)C[C@H](N(C)C)[C@H]2O)[C@](C)(O)C[C@@H](C)CN(C)[C@H](C)[C@@H](O)[C@]1(C)O [Azithromycin]
yes: efficacy against Chlamydia psittaci (Chlamydia psittaci) | efficacy against Legionella pneumophila (Legionella pneumophila) | efficacy against Chlamydia trachomatis (Chlamydia trachomatis) | efficacy against Rickettsiae (Rickettsiae) | efficacy against Mycoplasma pneumoniae (Mycoplasma pneumoniae) | efficacy against Bordetella pertussis (Bordetella pertussis) | efficacy against Moraxella catarrhalis (Moraxella catarrhalis) | efficacy against Chlamydia pneumoniae (Chlamydia pneumoniae) | efficacy against Campylobacter jejuni (Campylobacter jejuni) | efficacy against Bartonella bacilliformis (Bartonella bacilliformis) | efficacy against Streptococcus agalactiae (Streptococcus agalactiae) | efficacy against Staphylococcus aureus (MSSA) [3] | efficacy against Streptococcus pneumoniae (Streptococcus pneumoniae) | efficacy against Neisseria meningitidis (Neisseria meningitidis) | efficacy against Staphylococcus epidermidis [4] | efficacy against Vibrio cholerae (Vibrio cholerae) | efficacy against Haemophilus influenzae (Haemophilus influenzae) | efficacy against Streptococcus pyogenes (Streptococcus pyogenes)
no: efficacy against Brucella species (Brucella species) | efficacy against Acinetobacter baumannii (Acinetobacter baumannii) | efficacy against Morganella morganii (Morganella morganii) | efficacy against Pseudomonas fluorescens (Pseudomonas fluorescens) | efficacy against Providencia rettgeri (Providencia rettgeri) | efficacy against Enterobacter cloacae (Enterobacter cloacae) | efficacy against Providencia stuartii (Providencia stuartii) | efficacy against Enterococcus faecium (Enterococcus faecium) | efficacy against Pseudomonas aeruginosa (Pseudomonas aeruginosa) | efficacy against Serratia marcescens (Serratia marcescens) | efficacy against Klebsiella (Calymmatobacterium) granulomatis [1] | efficacy against Bacteroides fragilis (Bacteroides fragilis) | efficacy against Citrobacter freundii (Citrobacter freundii) | efficacy against Klebsiella pneumoniae (Klebsiella pneumoniae) | efficacy against Escherichia coli (Escherichia coli) | efficacy against Enterococcus faecalis (Enterococcus faecalis) | efficacy against Methicillin resistant staph aureus (MRSA) [2] | efficacy against Francisella tularensis (Francisella tularensis) | efficacy against Enterobacter sakazakii (Enterobacter sakazakii) | efficacy against Proteus mirabilis (Proteus mirabilis) | efficacy against Acinetobacter lwoffii (Acinetobacter lwoffii) | efficacy against Clostridium difficile (Clostridium difficile) | efficacy against Citrobacter diversus (Citrobacter diversus) | efficacy against Proteus vulgaris (Proteus vulgaris) | efficacy against Acinetobacter calcoaceticus [5] | efficacy against Corynebacterium jeikeium (Corynebacterium jeikeium) | efficacy against Clostridium perfringens (Clostridium perfringens) | efficacy against Enterobacter aerogenes (Enterobacter aerogenes) | efficacy against Klebsiella oxytoca (Klebsiella oxytoca)

O=C(O)c1cn(C2CC2)c2cc(N3CCNCC3)c(F)cc2c1=O [Ciprofloxacin]
yes: efficacy against Legionella pneumophila (Legionella pneumophila) | efficacy against Morganella morganii (Morganella morganii) | efficacy against Pseudomonas fluorescens (Pseudomonas fluorescens) | efficacy against Providencia rettgeri (Providencia rettgeri) | efficacy against Shigella boydii (Shigella boydii) | efficacy against Providencia stuartii (Providencia stuartii) | efficacy against Rickettsiae (Rickettsiae) | efficacy against Salmonella typhi (Salmonella typhi) | efficacy against Pseudomonas aeruginosa (Pseudomonas aeruginosa) | efficacy against Shigella flexneri (Shigella flexneri) | efficacy against Serratia marcescens (Serratia marcescens) | efficacy against Neisseria gonorrhoeae (Neisseria gonorrhoeae) | efficacy against Shigella sonnei (Shigella sonnei) | efficacy against Moraxella catarrhalis (Moraxella catarrhalis) | efficacy against Yersinia pestis (Yersinia pestis) | efficacy against Citrobacter freundii (Citrobacter freundii) | efficacy against Klebsiella pneumoniae (Klebsiella pneumoniae) | efficacy against Escherichia coli (Escherichia coli) | efficacy against Francisella tularensis (Francisella tularensis) | efficacy against Chlamydia pneumoniae (Chlamydia pneumoniae) | efficacy against Campylobacter jejuni (Campylobacter jejuni) | efficacy against Shigella dysenteriae (Shigella dysenteriae) | efficacy against Bartonella bacilliformis (Bartonella bacilliformis) | efficacy against Proteus mirabilis (Proteus mirabilis) | efficacy against Citrobacter diversus (Citrobacter diversus) | efficacy against Proteus vulgaris (Proteus vulgaris) | efficacy against Neisseria meningitidis (Neisseria meningitidis) | efficacy against Staphylococcus epidermidis [4] | efficacy against Vibrio cholerae (Vibrio cholerae) | efficacy against Haemophilus influenzae (Haemophilus influenzae) | efficacy against Haemophilus parainfluenzae [6] | efficacy against Enterobacter aerogenes (Enterobacter aerogenes) | efficacy against Klebsiella oxytoca (Klebsiella oxytoca)
no: efficacy against Enterococcus faecium (Enterococcus faecium) | efficacy against Bacteroides fragilis (Bacteroides fragilis) | efficacy against Methicillin resistant staph aureus (MRSA) [2] | efficacy against Corynebacterium jeikeium (Corynebacterium jeikeium)

C[C@@H]1[C@H](O)[C@@H](C)/C=C/C=C/CC/C=C/C=C/C=C/C=C/C(O[C@H]2O[C@H](C)[C@@H](O)[C@H](N)[C@@H]2O)CC2O[C@](O)(CC(O)C(O)CCC(O)CC(O)CC(O)CC(=O)O[C@H]1C)CC(O)C2C(=O)O (stereo partly shown) [Nystatin]
yes: efficacy against Candida species (Candida species)

NC[C@H]1O[C@H](O[C@H]2[C@H](O)[C@@H](O[C@H]3O[C@H](CO)[C@@H](O)[C@H](N)[C@H]3O)[C@H](N)C[C@@H]2N)[C@H](N)C[C@@H]1O [Tobramycin]
yes: efficacy against Pseudomonas fluorescens (Pseudomonas fluorescens) | efficacy against Shigella boydii (Shigella boydii) | efficacy against Enterobacter cloacae (Enterobacter cloacae) | efficacy against Pseudomonas aeruginosa (Pseudomonas aeruginosa) | efficacy against Shigella flexneri (Shigella flexneri) | efficacy against Serratia marcescens (Serratia marcescens) | efficacy against Shigella sonnei (Shigella sonnei) | efficacy against Klebsiella (Calymmatobacterium) granulomatis [1] | efficacy against Moraxella catarrhalis (Moraxella catarrhalis) | efficacy against Yersinia pestis (Yersinia pestis) | efficacy against Citrobacter freundii (Citrobacter freundii) | efficacy against Klebsiella pneumoniae (Klebsiella pneumoniae) | efficacy against Escherichia coli (Escherichia coli) | efficacy against Enterobacter sakazakii (Enterobacter sakazakii) | efficacy against Haemophilus ducreyi (Haemophilus ducreyi) | efficacy against Campylobacter jejuni (Campylobacter jejuni) | efficacy against Shigella dysenteriae (Shigella dysenteriae) | efficacy against Proteus mirabilis (Proteus mirabilis) | efficacy against Citrobacter diversus (Citrobacter diversus) | efficacy against Proteus vulgaris (Proteus vulgaris) | efficacy against Haemophilus influenzae (Haemophilus influenzae) | efficacy against Enterobacter aerogenes (Enterobacter aerogenes) | efficacy against Klebsiella oxytoca (Klebsiella oxytoca)
no: efficacy against Acinetobacter baumannii (Acinetobacter baumannii) | efficacy against Chlamydia psittaci (Chlamydia psittaci) | efficacy against Corynebacterium urealyticum [7] | efficacy against Legionella pneumophila (Legionella pneumophila) | efficacy against Chlamydia trachomatis (Chlamydia trachomatis) | efficacy against Enterococcus faecium (Enterococcus faecium) | efficacy against Mycoplasma pneumoniae (Mycoplasma pneumoniae) | efficacy against Neisseria gonorrhoeae (Neisseria gonorrhoeae) | efficacy against Bordetella pertussis (Bordetella pertussis) | efficacy against Bacteroides fragilis (Bacteroides fragilis) | efficacy against Peptostreptococcus (Peptostreptococcus) | efficacy against Enterococcus faecalis (Enterococcus faecalis) | efficacy against Methicillin resistant staph aureus (MRSA) [2] | efficacy against Chlamydia pneumoniae (Chlamydia pneumoniae) | efficacy against Streptococcus agalactiae (Streptococcus agalactiae) | efficacy against Diphtheroids (Diphtheroids) | efficacy against Acinetobacter lwoffii (Acinetobacter lwoffii) | efficacy against Clostridium difficile (Clostridium difficile) | efficacy against Viridans group streptococci [8] | efficacy against Staphylococcus aureus (MSSA) [3] | efficacy against Streptococcus pneumoniae (Streptococcus pneumoniae) | efficacy against Neisseria meningitidis (Neisseria meningitidis) | efficacy against Staphylococcus epidermidis [4] | efficacy against Acinetobacter calcoaceticus [5] | efficacy against Corynebacterium jeikeium (Corynebacterium jeikeium) | efficacy against Vibrio cholerae (Vibrio cholerae) | efficacy against Clostridium perfringens (Clostridium perfringens) | efficacy against Streptococcus pyogenes (Streptococcus pyogenes)
